From patent publication US10597388B2, “Pyridazinone herbicides” (FMC CORPORATION, priority 2014, dated 2020)

Tests used:
Assay in all cases: Test C greenhouse herbicide test, pre- and postemergence
Assay type in all cases: in vivo
[1] = tested on: galium (catchweed bedstraw, Galium aparine)
Procedure, shortened: (§1)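 Pre- and postemergence greenhouse screen; values are visual control ratings, 0 meaning no effect and 100 complete kill, assigned relative to untreated plants after 13 to 15 d.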

[2] = tested on: johnsongrass (Sorghum halepense)
Procedure, shortened: as §1

[3] = tested on: waterhemp (common waterhemp, Amaranthus rudis)
Procedure, shortened: as §1

[4] = tested on: barnyardgrass (Echinochloa crus-galli)
Procedure, shortened: as §1

[5] = tested on: ragweed (common ragweed, Ambrosia elatior)
Procedure, shortened: as §1

[6] = tested on: foxtail, giant (giant foxtail, Setaria faberii)
Procedure, shortened: as §1

[7] = tested on: lambsquarters (Chenopodium album)
Procedure, shortened: as §1

corn (Zea mays) = tested on: corn (Zea mays)
Procedure, shortened: as §1

[8] = tested on: oilseed rape (Brassica napus)
Procedure, shortened: as §1

[9] = tested on: crabgrass, large (large crabgrass, Digitaria sanguinalis)
Procedure, shortened: as §1

[10] = tested on: morningglory (Ipomoea coccinea)
Procedure, shortened: as §1

[11] = tested on: nutsedge, yellow (yellow nutsedge, Cyperus esculentus)
Procedure, shortened: as §1

[12] = tested on: pigweed (Amaranthus retroflexus)
Procedure, shortened: as §1

[13] = tested on: blackgrass (Alopecurus myosuroides)
Procedure, shortened: as §1

[14] = tested on: ryegrass, Italian (Italian ryegrass, Lolium multiflorum)
Procedure, shortened: as §1

[15] = tested on: velvetleaf (Abutilon theophrasti)
Procedure, shortened: as §1

[16] = Postemergence, 31 g ai/ha, 0 to 100 scale (0 no effect, 100 complete control)
[17] = Postemergence, 125 g ai/ha, scale 0 to 100, 0 is no effect, 100 is complete control
[18] = Postemergence, 250 g ai/ha, scale 0 to 100, 0 no effect, 100 complete control, 13 to 15 d
[19] = Preemergence, 31 g ai/ha, scale 0 to 100, 0 is no effect, 100 is complete control
[20] = Preemergence, 62 g ai/ha, scale 0 to 100, 0 is no effect, 100 is complete control
[21] = Preemergence, 125 g ai/ha, scale 0 to 100, 0 is no effect, 100 is complete control
[22] = Preemergence, 250 g ai/ha, scale 0 to 100 (0 no effect, 100 complete control)
[23] = postemergence, 62 g ai/ha, scale 0 to 100, 0 no effect, 100 complete control

## COc1nn(C)c(=O)c(-c2c(C)ccc3ccccc23)c1O [Compound 54]
[1]; [16]
  Galium plant response rating: 95
[1]; [17]
  Plant response rating, Galium: 98
[1]; [18]
  Plant response rating, Galium: 98
[1]; [19]
  Plant response rating, Galium: 95
[1]; [20]
  Plant response rating, Galium: 95
[1]; [21]
  Plant response rating, Galium: 100
[1]; [22]
  Galium plant response rating: 100
[1]; [23]
  Galium plant response rating: 98
[2]; [16]
  Johnsongrass plant response rating: 5
[2]; [17]
  Plant response rating, Johnsongrass: 10
[2]; [18]
  Plant response rating, Johnsongrass: 10
[2]; [19]
  Plant response rating, Johnsongrass: 0
[2]; [20]
  Plant response rating, Johnsongrass: 0
[2]; [21]
  Plant response rating, Johnsongrass: 5
[2]; [22]
  Johnsongrass plant response rating: 10
[2]; [23]
  Johnsongrass plant response rating: 5
[3]; [16]
  Waterhemp plant response rating: 85
[3]; [17]
  Plant response rating, Waterhemp: 95
[3]; [18]
  Plant response rating, Waterhemp: 95
[3]; [19]
  Plant response rating, Waterhemp: 98
[3]; [20]
  Plant response rating, Waterhemp: 100
[3]; [21]
  Plant response rating, Waterhemp: 100
[3]; [22]
  Waterhemp plant response rating: 100
[3]; [23]
  Waterhemp plant response rating: 90
[4]; [16]
  Barnyardgrass plant response rating: 15
[4]; [17]
  Plant response rating, Barnyardgrass: 55
[4]; [18]
  Plant response rating, Barnyardgrass: 20
[4]; [19]
  Plant response rating, Barnyardgrass: 15
[4]; [20]
  Plant response rating, Barnyardgrass: 35
[4]; [21]
  Plant response rating, Barnyardgrass: 65
[4]; [22]
  Barnyardgrass plant response rating: 85
[4]; [23]
  Barnyardgrass plant response rating: 30
[5]; [16]
  Ragweed plant response rating: 90
[5]; [17]
  Plant response rating, Ragweed: 95
[5]; [18]
  Plant response rating, Ragweed: 98
[5]; [19]
  Plant response rating, Ragweed: 90
[5]; [20]
  Plant response rating, Ragweed: 90
[5]; [21]
  Plant response rating, Ragweed: 95
[5]; [22]
  Ragweed plant response rating: 100
[5]; [23]
  Ragweed plant response rating: 95
[6]; [16]
  Foxtail, Giant plant response rating: 20
[6]; [17]
  Plant response rating, Foxtail, Giant: 75
[6]; [18]
  Plant response rating, Foxtail, Giant: 90
[6]; [19]
  Plant response rating, Foxtail, Giant: 70
[6]; [20]
  Plant response rating, Foxtail, Giant: 80
[6]; [21]
  Plant response rating, Foxtail, Giant: 75
[6]; [22]
  Foxtail, Giant plant response rating: 90
[6]; [23]
  Foxtail, Giant plant response rating: 55
[7]; [16]
  Lambsquarters plant response rating: 95
[7]; [17]
  Plant response rating, Lambsquarters: 100
[7]; [18]
  Plant response rating, Lambsquarters: 100
[7]; [19]
  Plant response rating, Lambsquarters: 80
[7]; [20]
  Plant response rating, Lambsquarters: 85
[7]; [21]
  Plant response rating, Lambsquarters: 80
[7]; [22]
  Lambsquarters plant response rating: 80
[7]; [23]
  Lambsquarters plant response rating: 95
Corn (Zea mays); [16]
  Corn plant response rating: 0
Corn (Zea mays); [17]
  Plant response rating, Corn: 5
Corn (Zea mays); [18]
  Plant response rating, Corn: 10
Corn (Zea mays); [19]
  Plant response rating, Corn: 0
Corn (Zea mays); [20]
  Plant response rating, Corn: 10
Corn (Zea mays); [21]
  Plant response rating, Corn: 10
Corn (Zea mays); [22]
  Corn plant response rating: 0
Corn (Zea mays); [23]
  Corn plant response rating: 0
[8]; [16]
  Oilseed Rape plant response rating: 70
[8]; [17]
  Plant response rating, Oilseed Rape: 40
[8]; [18]
  Plant response rating, Oilseed Rape: 70
[8]; [19]
  Plant response rating, Oilseed Rape: 70
[8]; [20]
  Plant response rating, Oilseed Rape: 90
[8]; [21]
  Plant response rating, Oilseed Rape: 90
[8]; [22]
  Oilseed Rape plant response rating: 100
[8]; [23]
  Oilseed Rape plant response rating: 80
[9]; [16]
  Crabgrass, Large plant response rating: 20
[9]; [17]
  Plant response rating, Crabgrass, Large: 35
[9]; [18]
  Plant response rating, Crabgrass, Large: 55
[9]; [19]
  Plant response rating, Crabgrass, Large: 40
[9]; [20]
  Plant response rating, Crabgrass, Large: 40
[9]; [21]
  Plant response rating, Crabgrass, Large: 75
[9]; [22]
  Crabgrass, Large plant response rating: 60
[9]; [23]
  Crabgrass, Large plant response rating: 25
[10]; [16]
  Morningglory plant response rating: 95
[10]; [17]
  Plant response rating, Morningglory: 98
[10]; [18]
  Plant response rating, Morningglory: 100
[10]; [19]
  Plant response rating, Morningglory: 80
[10]; [20]
  Plant response rating, Morningglory: 90
[10]; [21]
  Plant response rating, Morningglory: 95
[10]; [22]
  Morningglory plant response rating: 98
[10]; [23]
  Morningglory plant response rating: 98
[11]; [16]
  Nutsedge, Yellow plant response rating: 10
[11]; [17]
  Plant response rating, Nutsedge, Yellow: 55
[11]; [18]
  Plant response rating, Nutsedge, Yellow: 70
[11]; [19]
  Plant response rating, Nutsedge, Yellow: 5
[11]; [20]
  Plant response rating, Nutsedge, Yellow: 5
[11]; [21]
  Plant response rating, Nutsedge, Yellow: 25
[11]; [22]
  Nutsedge, Yellow plant response rating: 70
[11]; [23]
  Nutsedge, Yellow plant response rating: 35
[12]; [16]
  Pigweed plant response rating: 85
[12]; [17]
  Plant response rating, Pigweed: 98
[12]; [18]
  Plant response rating, Pigweed: 100
[12]; [19]
  Plant response rating, Pigweed: 100
[12]; [20]
  Plant response rating, Pigweed: 100
[12]; [21]
  Plant response rating, Pigweed: 100
[12]; [22]
  Pigweed plant response rating: 100
[12]; [23]
  Pigweed plant response rating: 95
[13]; [16]
  Blackgrass plant response rating: 15
[13]; [17]
  Plant response rating, Blackgrass: 60
[13]; [18]
  Plant response rating, Blackgrass: 40
[13]; [19]
  Plant response rating, Blackgrass: 50
[13]; [20]
  Plant response rating, Blackgrass: 55
[13]; [21]
  Plant response rating, Blackgrass: 55
[13]; [22]
  Blackgrass plant response rating: 80
[13]; [23]
  Blackgrass plant response rating: 5
[14]; [16]
  Ryegrass, Italian plant response rating: 50
[14]; [17]
  Plant response rating, Ryegrass, Italian: 85
[14]; [18]
  Plant response rating, Ryegrass, Italian: 80
[14]; [19]
  Plant response rating, Ryegrass, Italian: 55
[14]; [20]
  Plant response rating, Ryegrass, Italian: 50
[14]; [21]
  Plant response rating, Ryegrass, Italian: 80
[14]; [22]
  Ryegrass, Italian plant response rating: 90
[14]; [23]
  Ryegrass, Italian plant response rating: 80
[15]; [16]
  Velvetleaf plant response rating: 45
[15]; [17]
  Plant response rating, Velvetleaf: 98
[15]; [18]
  Plant response rating, Velvetleaf: 100
[15]; [19]
  Plant response rating, Velvetleaf: 80
[15]; [20]
  Plant response rating, Velvetleaf: 85
[15]; [21]
  Plant response rating, Velvetleaf: 90
[15]; [22]
  Velvetleaf plant response rating: 95
[15]; [23]
  Velvetleaf plant response rating: 90
